ChEMBL document CHEMBL2203132, “Synthesis and antibiofilm activity of marine natural product-based 4-thiazolidinones derivatives” (2012)
In brackets after ≈: the same amount, converted by molar mass.

Experiments:
Type in all cases: functional
[1] = tested on: Staphylococcus epidermidis; experiment: Antimicrobial activity against Staphylococcus epidermidis ATCC 12228 by broth microdilution method
[2] = tested on: Staphylococcus epidermidis; experiment: Antimicrobial activity against Staphylococcus epidermidis ATCC 12228 using sub-cultures from MIC method grown subsequently on Mueller-Hinton agar plates at 37 degC for 24 hrs; conditions: ATCC 12228, 24 h
Staphylococcus aureus [3] = experiment: Antibiofilm activity against Staphylococcus aureus ATCC 29213 biofilms incubated at 37 degC for 16 hrs; conditions: ATCC 29213, 16 h
[4] = tested on: Staphylococcus epidermidis; experiment: Antibiofilm activity against Staphylococcus epidermidis ATCC 12228 biofilms incubated at 37 degC for 16 hrs; conditions: ATCC 12228, 16 h
Enterococcus faecalis [5] = experiment: Antimicrobial activity against Enterococcus faecalis ATCC 29212 using sub-cultures from MIC method grown subsequently on Mueller-Hinton agar plates at 37 degC for 24 hrs; conditions: ATCC 29212, 24 h
Enterococcus faecalis [6] = experiment: Antimicrobial activity against Enterococcus faecalis ATCC 29212 by broth microdilution method
Staphylococcus aureus [7] = experiment: Antimicrobial activity against Staphylococcus aureus ATCC 29213 by broth microdilution method
Enterococcus faecalis [8] = experiment: Antibiofilm activity against Enterococcus faecalis ATCC 29212 biofilms incubated at 37 degC for 16 hrs; conditions: ATCC 29212, 16 h
Staphylococcus aureus [9] = experiment: Bactericidal activity against Staphylococcus aureus ATCC 29213 using sub-cultures from MIC method grown subsequently on Mueller-Hinton agar plates at 37 degC for 24 hrs; conditions: ATCC 29213, 24 h
Staphylococcus aureus [10] = experiment: Potency index, ratio of MIC for vancomycin to MIC for compound against Staphylococcus aureus ATCC 29213 biofilms incubated at 37 degC for 16 hrs

| Compound | MIC [1] | MBC [2] | MIC (Staphylococcus aureus [3]) | MIC [4] | MBC (Enterococcus faecalis [5]) | MIC (Enterococcus faecalis [6]) | MIC (Staphylococcus aureus [7]) | MIC (Enterococcus faecalis [8]) | MBC (Staphylococcus aureus [9]) | Ratio (Staphylococcus aureus [10]) |
| --- | --- | --- | --- | --- | --- | --- | --- | --- | --- | --- |
| Cn1c(C(=O)NN2C(=O)CSC2c2ccccc2)cc(Br)c1Br (stereo not given) | 3.12 µg/mL (≈ 6.81 µM) | 6.25 µg/mL (≈ 13.6 µM) | 3.12 µg/mL (≈ 6.81 µM) | 12.5 µg/mL (≈ 27.2 µM) | 25 µg/mL (≈ 54.4 µM) | 12.5 µg/mL (≈ 27.2 µM) | 1.56 µg/mL (≈ 3.4 µM) | 12.5 µg/mL (≈ 27.2 µM) | 6.25 µg/mL (≈ 13.6 µM) | – |
| COc1ccc(C2SCC(=O)N2NC(=O)c2cc(Br)c(Br)n2C)cc1 (stereo not given) | 1.56 µg/mL (≈ 3.19 µM) | 3.12 µg/mL (≈ 6.39 µM) | 0.78 µg/mL (≈ 1.59 µM) | 3.12 µg/mL (≈ 6.39 µM) | 25 µg/mL (≈ 51.1 µM) | 6.25 µg/mL (≈ 12.8 µM) | 0.78 µg/mL (≈ 1.59 µM) | 6.25 µg/mL (≈ 12.8 µM) | 6.25 µg/mL (≈ 12.8 µM) | 3 |
| Cn1c(C(=O)NN2C(=O)CSC2c2ccc([N+](=O)[O-])cc2)cc(Br)c1Br (stereo not given) | 1.56 µg/mL (≈ 3.09 µM) | 6.25 µg/mL (≈ 12.4 µM) | 0.78 µg/mL (≈ 1.55 µM) | 3.12 µg/mL (≈ 6.2 µM) | 25 µg/mL (≈ 49.6 µM) | 12.5 µg/mL (≈ 24.8 µM) | 0.78 µg/mL (≈ 1.55 µM) | 12.5 µg/mL (≈ 24.8 µM) | 6.25 µg/mL (≈ 12.4 µM) | 3 |
| COc1ccc(C2SCC(=O)N2NC(=O)c2cc(Br)c(Br)n2C)c(O)c1 (stereo not given) | 1.56 µg/mL (≈ 3.09 µM) | 3.12 µg/mL (≈ 6.19 µM) | 1.56 µg/mL (≈ 3.09 µM) | 3.12 µg/mL (≈ 6.19 µM) | 25 µg/mL (≈ 49.5 µM) | 12.5 µg/mL (≈ 24.7 µM) | 0.78 µg/mL (≈ 1.54 µM) | 12.5 µg/mL (≈ 24.7 µM) | 6.25 µg/mL (≈ 12.4 µM) | 2 |
| COc1ccc(C2SCC(=O)N2NC(=O)c2cc(Br)c(Br)n2C)cc1O (stereo not given) | 1.56 µg/mL (≈ 3.09 µM) | 6.25 µg/mL (≈ 12.4 µM) | 3.12 µg/mL (≈ 6.19 µM) | 3.12 µg/mL (≈ 6.19 µM) | 12.5 µg/mL (≈ 24.7 µM) | 3.12 µg/mL (≈ 6.19 µM) | 1.56 µg/mL (≈ 3.09 µM) | 12.5 µg/mL (≈ 24.7 µM) | 6.25 µg/mL (≈ 12.4 µM) | – |
| Cn1c(C(=O)NN2C(=O)CSC2c2cc(O)ccc2O)cc(Br)c1Br (stereo not given) | 1.56 µg/mL (≈ 3.18 µM) | 3.12 µg/mL (≈ 6.36 µM) | 1.56 µg/mL (≈ 3.18 µM) | 3.12 µg/mL (≈ 6.36 µM) | 12.5 µg/mL (≈ 25.4 µM) | 6.25 µg/mL (≈ 12.7 µM) | 0.78 µg/mL (≈ 1.59 µM) | 12.5 µg/mL (≈ 25.4 µM) | 3.12 µg/mL (≈ 6.36 µM) | 2 |
| Cn1c(C(=O)NN2C(=O)CSC2c2ccc(F)cc2)cc(Br)c1Br (stereo not given) | 1.56 µg/mL (≈ 3.27 µM) | 3.12 µg/mL (≈ 6.55 µM) | 1.56 µg/mL (≈ 3.27 µM) | 3.12 µg/mL (≈ 6.55 µM) | 12.5 µg/mL (≈ 26.2 µM) | 3.12 µg/mL (≈ 6.54 µM) | 0.78 µg/mL (≈ 1.63 µM) | 12.5 µg/mL (≈ 26.2 µM) | 3.12 µg/mL (≈ 6.55 µM) | 2 |
| Cn1c(C(=O)NN2C(=O)CSC2c2ccc(Cl)cc2)cc(Br)c1Br (stereo not given) | 1.56 µg/mL (≈ 3.16 µM) | 3.12 µg/mL (≈ 6.33 µM) | 1.56 µg/mL (≈ 3.16 µM) | 3.12 µg/mL (≈ 6.33 µM) | 25 µg/mL (≈ 50.6 µM) | 12.5 µg/mL (≈ 25.3 µM) | 0.78 µg/mL (≈ 1.58 µM) | 12.5 µg/mL (≈ 25.3 µM) | 3.12 µg/mL (≈ 6.33 µM) | 2 |
| Cn1c(C(=O)NN2C(=O)CSC2C/C=C/c2ccccc2)cc(Br)c1Br (stereo not given) | 25 µg/mL (≈ 50.1 µM) | 12.5 µg/mL (≈ 25 µM) | 6.12 µg/mL (≈ 12.3 µM) | 6.25 µg/mL (≈ 12.5 µM) | 12.5 µg/mL (≈ 25 µM) | 25 µg/mL (≈ 50.1 µM) | 6.25 µg/mL (≈ 12.5 µM) | 6.25 µg/mL (≈ 12.5 µM) | 12.5 µg/mL (≈ 25 µM) | – |
| Cn1c(C(=O)NN2C(=O)CCSC2c2ccccc2)cc(Br)c1Br (stereo not given) | 6.25 µg/mL (≈ 13.2 µM) | 12.5 µg/mL (≈ 26.4 µM) | 12.5 µg/mL (≈ 26.4 µM) | 12.5 µg/mL (≈ 26.4 µM) | 100 µg/mL (≈ 211 µM) | 50 µg/mL (≈ 106 µM) | 12.5 µg/mL (≈ 26.4 µM) | 25 µg/mL (≈ 52.8 µM) | 6.25 µg/mL (≈ 13.2 µM) | – |
| COc1ccc(C2SCCC(=O)N2NC(=O)c2cc(Br)c(Br)n2C)cc1 (stereo not given) | 6.25 µg/mL (≈ 12.4 µM) | 12.5 µg/mL (≈ 24.8 µM) | 6.25 µg/mL (≈ 12.4 µM) | 12.5 µg/mL (≈ 24.8 µM) | 100 µg/mL (≈ 199 µM) | 50 µg/mL (≈ 99.4 µM) | 3.12 µg/mL (≈ 6.21 µM) | 25 µg/mL (≈ 49.7 µM) | 6.25 µg/mL (≈ 12.4 µM) | – |
| Cn1c(C(=O)NN2C(=O)CCSC2c2ccc([N+](=O)[O-])cc2)cc(Br)c1Br (stereo not given) | 6.25 µg/mL (≈ 12.1 µM) | 12.5 µg/mL (≈ 24.1 µM) | 6.25 µg/mL (≈ 12.1 µM) | 12.5 µg/mL (≈ 24.1 µM) | 50 µg/mL (≈ 96.5 µM) | 50 µg/mL (≈ 96.5 µM) | 3.12 µg/mL (≈ 6.03 µM) | 25 µg/mL (≈ 48.2 µM) | 6.25 µg/mL (≈ 12.1 µM) | – |
| COc1ccc(C2SCCC(=O)N2NC(=O)c2cc(Br)c(Br)n2C)c(O)c1 (stereo not given) | 6.25 µg/mL (≈ 12 µM) | 12.5 µg/mL (≈ 24.1 µM) | 6.25 µg/mL (≈ 12 µM) | 12.5 µg/mL (≈ 24.1 µM) | 50 µg/mL (≈ 96.3 µM) | 25 µg/mL (≈ 48.1 µM) | 3.12 µg/mL (≈ 6.02 µM) | 25 µg/mL (≈ 48.1 µM) | 6.25 µg/mL (≈ 12 µM) | – |
| COc1ccc(C2SCCC(=O)N2NC(=O)c2cc(Br)c(Br)n2C)cc1O (stereo not given) | 6.25 µg/mL (≈ 12 µM) | 12.5 µg/mL (≈ 24.1 µM) | 6.25 µg/mL (≈ 12 µM) | 12.5 µg/mL (≈ 24.1 µM) | 50 µg/mL (≈ 96.3 µM) | 25 µg/mL (≈ 48.1 µM) | 3.12 µg/mL (≈ 6.02 µM) | 25 µg/mL (≈ 48.1 µM) | 6.25 µg/mL (≈ 12 µM) | – |
| Cn1c(C(=O)NN2C(=O)CCSC2c2cc(O)ccc2O)cc(Br)c1Br (stereo not given) | 6.25 µg/mL (≈ 12.4 µM) | 12.5 µg/mL (≈ 24.7 µM) | 6.25 µg/mL (≈ 12.4 µM) | 12.5 µg/mL (≈ 24.7 µM) | 50 µg/mL (≈ 99 µM) | 25 µg/mL (≈ 49.5 µM) | 3.12 µg/mL (≈ 6.19 µM) | 25 µg/mL (≈ 49.5 µM) | 12.5 µg/mL (≈ 24.7 µM) | – |
| Cn1c(C(=O)NN2C(=O)CCSC2c2ccc(F)cc2)cc(Br)c1Br (stereo not given) | 6.25 µg/mL (≈ 12.7 µM) | 12.5 µg/mL (≈ 25.4 µM) | 6.25 µg/mL (≈ 12.7 µM) | 12.5 µg/mL (≈ 25.4 µM) | 50 µg/mL (≈ 102 µM) | 25 µg/mL (≈ 50.9 µM) | 3.12 µg/mL (≈ 6.36 µM) | 25 µg/mL (≈ 50.9 µM) | 12.5 µg/mL (≈ 25.4 µM) | – |
| Cn1c(C(=O)NN2C(=O)CCSC2c2ccc(Cl)cc2)cc(Br)c1Br (stereo not given) | 6.25 µg/mL (≈ 12.3 µM) | 12.5 µg/mL (≈ 24.6 µM) | 6.25 µg/mL (≈ 12.3 µM) | 12.5 µg/mL (≈ 24.6 µM) | 50 µg/mL (≈ 98.5 µM) | 25 µg/mL (≈ 49.2 µM) | 3.12 µg/mL (≈ 6.16 µM) | 25 µg/mL (≈ 49.2 µM) | 12.5 µg/mL (≈ 24.6 µM) | – |
| Cn1c(C(=O)NN2C(=O)CCSC2C/C=C/c2ccccc2)cc(Br)c1Br (stereo not given) | 6.25 µg/mL (≈ 12.2 µM) | 12.5 µg/mL (≈ 24.4 µM) | 25 µg/mL (≈ 48.7 µM) | 25 µg/mL (≈ 48.7 µM) | 50 µg/mL (≈ 97.4 µM) | 25 µg/mL (≈ 48.7 µM) | 12.5 µg/mL (≈ 24.4 µM) | 50 µg/mL (≈ 97.4 µM) | 50 µg/mL (≈ 97.4 µM) | – |
| CN[C@H](CC(C)C)C(=O)N[C@H]1C(=O)N[C@@H](CC(N)=O)C(=O)N[C@H]2C(=O)N[C@H]3C(=O)N[C@H](C(=O)N[C@H](C(=O)O)c4cc(O)cc(O)c4-c4cc3ccc4O)[C@H](O)c3ccc(c(Cl)c3)Oc3cc2cc(c3O[C@@H]2O[C@H](CO)[C@@H](O)[C@H](O)[C@H]2O[C@H]2C[C@](C)(N)[C@H](O)[C@H](C)O2)Oc2ccc(cc2Cl)[C@H]1O [VANCOMYCIN] | – | 3.12 µg/mL (≈ 2.16 µM) | 3.12 µg/mL (≈ 2.16 µM) | 3.12 µg/mL (≈ 2.16 µM) | 6.25 µg/mL (≈ 4.31 µM) | 3.12 µg/mL (≈ 2.16 µM) | – | 3.12 µg/mL (≈ 2.16 µM) | 3.12 µg/mL (≈ 2.16 µM) | – |
